Test systems include Escherichia coli K88; Escherichia coli UB1005; Escherichia coli 1005; Candida albicans.
Test in all cases: ≥ marks a high value that may be exact or a test limit, other limits are often not marked, values filed in µg/mL are converted to µM
Test [1] relates to Cryptococcus neoformans ATCC 32045.
Test [2] has as its system Escherichia coli ATCC 2592.
The test system of test [3] is Staphylococcus aureus ATCC 33591.
Test [4] has as its system Candida albicans ATCC 10231.
The test system of test [5] is Pseudomonas aeruginosa ATCC 10145.
The subject of test [6] is Escherichia coli ATCC 25922.
Test [7] concerns Lacticaseibacillus rhamnosus 1.0936.
In test [8] the test system is Salmonella enterica subsp. enterica serovar Choleraesuis CVCC 503.
Test [9] deals with Salmonella enterica subsp. enterica serovar Pullorum C79-13.
Test [10] concerns Lacticaseibacillus rhamnosus 1.0911.
Test [11] concerns Escherichia coli O157:H7 CICC 21530.
The test system of test [12] is Lacticaseibacillus rhamnosus 1.9021.
Test [13] concerns Staphylococcus aureus ATCC 29213.
The subject of test [14] is Salmonella enterica subsp. enterica serovar Typhimurium ATCC 14028.
The subject of test [15] is Staphylococcus aureus ATCC 43300.
Test [16] has as its system Pseudomonas aeruginosa ATCC 27853.
The subject of test [17] is Streptococcus agalactiae BNCC 185941.
Test [18] relates to Staphylococcus epidermidis ATCC 12228.
Test [19] concerns Lacticaseibacillus rhamnosus 8014.
In test [20] the test system is Pseudomonas aeruginosa PAO1.
Test [21] concerns Listeria monocytogenes CMCC 54004.
In test [22] the test system is Salmonella enterica subsp. enterica serovar Typhimurium C77-31.
Test [23] has as its system Salmonella enterica subsp. enterica CMCC 47020.
The subject of test [24] is Salmonella enterica subsp. enterica serovar Typhi CMCC 50071.
The subject of test [25] is Cronobacter sakazakii ATCC 29544.
Test [26] has as its system Staphylococcus aureus CMCC 26074.
The subject of test [27] is Staphylococcus aureus ATCC 25923.
The subject of test [28] is Bacillus cereus CMCC 6303.
Test [29] concerns Candida krusei CGMCC 2.1857.
In test [30] the test system is Candida parapsilosis CGMCC 2.3989.
The test system of test [31] is Candida tropicalis CGMCC 2.1975.
The test system of test [32] is Salmonella enterica subsp. enterica serovar Pullorum ATCC 7913.

Here are results for six molecules from DBAASP.

Values after ≈ are worked out from the molar mass of the structure shown.

For `C[C@H](NC(=O)[C@H](Cc1ccccc1)NC(=O)[C@@H](N)CCCCN)C(=O)N[C@@H](CCCCN)C(=O)O` [KFAK], the minimum inhibitory concentration (MIC) in test [1] is at least 1010 µM; in [2], at least 507 µM; in test [3] it was at least 1010 µM; in test [4], above 1010 µM; in test [5] it was at least 1010 µM.
As to `C[C@H](NC(=O)[C@H](CCCCN)NC(=O)[C@H](CCCCN)NC(=O)[C@H](CCCCN)NC(=O)[C@H](C)NC(=O)[C@H](CCCCN)NC(=O)[C@H](CCCCN)NC(=O)[C@H](CCCCN)NC(=O)[C@H](C)NC(=O)[C@H](CCCCN)NC(=O)[C@H](CCCCN)NC(=O)[C@H](CCCCN)NC(=O)[C@H](C)NC(=O)[C@H](CCCCN)NC(=O)[C@H](CCCCN)NC(=O)[C@H](CCCCN)NC(=O)[C@H](C)NC(=O)[C@H](CCCCN)NC(=O)[C@H](CCCCN)NC(=O)[C@H](CCCCN)NC(=O)[C@H](C)NC(=O)[C@H](CCCCN)NC(=O)[C@H](CCCCN)NC(=O)[C@H](CCCCN)NC(=O)[C@H](C)NC(=O)[C@H](CCCCN)NC(=O)[C@@H](N)CCCCN)C(=O)N[C@@H](CCCCN)C(=O)O` [KKAKKKAKKKAKKKAKKKAKKKAKKKAK], the minimal inhibitory concentration (MIC) in [1] is 19.6 µM (≈ 63 µg/mL); in [2], 13.7 µM (≈ 43.8 µg/mL); in test [4], above 78 µM; in [5] it was at least 39 µM.
Regarding `CC(C)C[C@H](NC(=O)CNC(=O)[C@H](Cc1c[nH]c2ccccc12)NC(=O)CNC(=O)[C@H](CC(C)C)NC(=O)[C@H](CC(C)C)NC(=O)[C@H](CCCCN)NC(=O)[C@@H](N)CCCCN)C(=O)N[C@@H](CC(C)C)C(=O)N[C@@H](CCCCN)C(=O)N[C@@H](CCCCN)C(N)=O` [KKLLGWGLLKK], the MIC in test [6] was above 128 µM; in test [7] it was at least 128 µM; in test [8], at least 128 µM; in test [9], at least 64 µM; in [10], at least 128 µM; in [11], at least 128 µM. The MIC in [12] is at least 128 µM; in test [13] it was above 128 µM; in test [14], above 128 µM; in test [15], above 128 µM; in test [16], above 128 µM; in test [17] it was at least 128 µM. Also, the MIC in the test on Escherichia coli K88 was at least 64 µM; in test [18], above 128 µM; in test [19], at least 128 µM; in [20], above 128 µM.
In the case of `CC(C)C[C@H](NC(=O)[C@H](Cc1c[nH]c2ccccc12)NC(=O)[C@H](CC(C)C)NC(=O)[C@@H](NC(=O)[C@H](CC(C)C)NC(=O)[C@H](CCCCN)NC(=O)[C@@H](N)CCCCN)[C@@H](C)O)C(=O)N[C@H](C(=O)N[C@@H](CC(C)C)C(=O)N[C@@H](CCCCN)C(=O)N[C@@H](CCCCN)C(N)=O)[C@@H](C)O` [KKLTLWLTLKK], the MIC in [7] was at least 32 µM; in [8], 8 µM (≈ 11 µg/mL); in [9], 2 µM (≈ 2.74 µg/mL); in test [10] it was 16 µM (≈ 21.9 µg/mL); in test [11] it was 8 µM (≈ 11 µg/mL); in test [12], at least 32 µM. The MIC in [13] was 32 µM (≈ 43.9 µg/mL); in test [14], 128 µM (≈ 175 µg/mL); in test [15], 32 µM (≈ 43.9 µg/mL); in test [16] it was 8 µM (≈ 11 µg/mL); in [17] it was at least 128 µM; in the test on Escherichia coli K88, 2 µM (≈ 2.74 µg/mL). The figures for the MIC in test [18], in test [19] and in test [20] were 32 µM (≈ 43.9 µg/mL), at least 128 µM and 16 µM (≈ 21.9 µg/mL), respectively.
Turning to `CC[C@H](C)[C@H](NC(=O)[C@H](CCCN=C(N)N)NC(=O)[C@H](CCCN=C(N)N)NC(=O)[C@H](CCCCN)NC(=O)[C@@H](N)CCCN=C(N)N)C(=O)N[C@H](C(=O)N[C@H](C(=O)N[C@H](C(=O)N[C@@H](CCCN=C(N)N)C(=O)N[C@@H](CCCN=C(N)N)C(=O)N[C@@H](CCCCN)C(=O)N[C@@H](CCCN=C(N)N)C(N)=O)[C@@H](C)CC)C(C)C)C(C)C` [RKRRIVVIRRKR], the MIC was at least 32 µM in test [21]; at least 256 µM in test [9]; at least 256 µM in test [22]; at least 256 µM in test [23]; 128 µM (≈ 209 µg/mL) in test [14]; at least 256 µM in the test with Escherichia coli UB1005. Moreover, the MIC is at least 256 µM in [24]; at least 256 µM in [25]; at least 256 µM in [26]; above 256 µM in test [27]; at least 128 µM in test [28].
For the molecule `CC(C)C[C@H](NC(=O)[C@H](CC(C)C)NC(=O)[C@H](CCCN=C(N)N)NC(=O)[C@H](CCCN=C(N)N)NC(=O)[C@H](CC(C)C)NC(=O)[C@H](CCCN=C(N)N)NC(=O)[C@H](CCCN=C(N)N)NC(=O)[C@H](CC(C)C)NC(=O)[C@H](CC(C)C)NC(=O)[C@@H](N)CCCN=C(N)N)C(=O)N[C@@H](CCCN=C(N)N)C(N)=O` [RLLRRLRRLLR], the MIC turned out to be 4 µM (≈ 6.08 µg/mL) in the test with Escherichia coli 1005; 4 µM (≈ 6.08 µg/mL) in [29]; 8 µM (≈ 12.2 µg/mL) in test [30]; 4 µM (≈ 6.08 µg/mL) in test [13]; 8 µM (≈ 12.2 µg/mL) in test [14]; 8 µM (≈ 12.2 µg/mL) in test [15]. The MIC in test [31] was determined as 2 µM (≈ 3.04 µg/mL); against Candida albicans, 5.66 µM (≈ 8.6 µg/mL); in [27], 8 µM (≈ 12.2 µg/mL); in test [18], 4 µM (≈ 6.08 µg/mL); in test [32], 8 µM (≈ 12.2 µg/mL).

One may read the MIC as the smallest concentration in the dilution series that meets the test's criterion for growth inhibition.
